{"source": "patent EP0576227A2", "about": "“2'-Deoxy-2',2'-difluoro(2,6,8-substituted) purine nucleosides having anti-viral and anti-cancer activity and intermediates” (ELI LILLY AND COMPANY, priority 1992, dated 1993)", "key": {"[1]": {"test_system": "human leukemia cells (CCRF-CEM cell line)", "test": "Growth inhibition of human leukemia cells (CCRF-CEM cytotoxicity screen)", "assay_type": "cell-based", "settings": "Homo sapiens, CCRF-CEM", "description": "In another aspect, the invention provides a method of treating susceptible neoplasms in mammals comprising administering to a mammal in need of such treatment a pharmaceutically effective amount of a compound of formula (I). […] The treatment contemplated by the present method includes both medical therapeutic and prophylactic treatment, as appropriate. The specific dosage level of the compound administered according to this invention will, of course, be determined by the circumstances surrounding the case, including, for example, the particular compound administered, the route of administration, and the condition being treated. The compounds are effectively administered orally, topically, or parenterally. […] The representative compounds of formula (I) employed in the present invention are cytotoxic as they inhibit the growth of rapidly dividing human leukemia cells (CCRF-CEM cell line). Table 1 below gives the results of testing several compounds representative of formula (I)."}, "Hepatitis B Virus": {"test_system": "Hepatitis B Virus", "test": "Hepatitis B Virus Test (HBV DNA in supernatant of Hep10A cells, PCR / Southern blot)", "assay_type": "cell-based, human Hepatitis B Virus (HBV)", "settings": "240 h", "description": "Plasmids were constructed using standard recombinant DNA techniques; see Sambrook, J., et al., Molecular Cloning: A Laboratory Manual, 2nd Edition (1989), Cold Spring Harbor Press, Cold Spring Harbor, NY. Plasmid pTHBV contains a head-to-tail dimer of the human Hepatitis B Virus (HBV) genome, subtype adw, clone into the EcoR I site of pUC9. […] and subcloned into the Sal I site of pTHBV after a two base fill-in reaction with the Klenow fragment of E. coli DNA polymerase I.\nHepG2 cells (human hepatoblastoma, ATCC HB 8065) were routinely passaged in growth medium consisting of EARLE'S minimal essential media (Grand Island Biological Company (GIBCO) Bethesda Research Laboratories (BRL), Life Technologies, Inc., Gathersburg, MD.) supplemented with sodium pyruvate, 10 percent fetal bovine serum, 100 units/ml penicillin, and 100 µg/ml streptomycin. Hep10A cells were derived from HepG2 cells. Briefly, HepG2 cells were seeded into 60 mm culture dishes in growth medium, and when approximately 50 percent confluent, were transfected with pTHBVneo using the calcium phosphate precipitation method described by Graham, F.L. and Van der Eb in Virology, 52, p 456-467 (1973). After four hours of post-transfection, the cells were shocked with 10 percent dimethylsulfoxide and 20 percent glucose for 5 minutes, after which they were allowed to recover for 24 horus. The transfected cells were passaged and reseeded in the presence of growth medium containing 800 µg/ml geneticin. The cells were monitored for the appearance of geneticin resistant cells. A genecitin resistant cell line was established, and routinely passaged in growth medium containing 400 µg/ml geneticin. This cell line will be referred to as Hep10A.\nHep10A cells were seeded into 96-well microtiter plates at a density of approximately 50,000 cells per well, allowed to grow to confluence, and maintained at confluence for 2 to 4 days to allow Hepatitus B Virus derivative HBV DNA levels to stabilize; see Sells, M.A., et al., J. Virol., 62, p 2836-2844 (1987) and Korba, B.E., et al., Antiviral Res., 15, p 217-228 (1991). At this time, cells were treated with 2'-deoxy-2'-fluoroarabino-5-iodouridine (FIAU) and the compound of Example 5 for 10 days, with daily changes of media containing fresh drug. FIAU was used as a positive control. On day 10, culture supernatant samples were taken and stored at 4°C until needed. PCR analysis was performed on supernatant samples using appropriate primers to amplify a 477 base pair fragment from the \"a\" determinant of the surface antigen gene of HBV subtype adw. Following eletrophoresis through agarose gels, the DNA was transferred to nylon membranes (Optiblot™, IBI, New Haven, CT) by capillary action (Southern, 1975) using 1X saline sodium citrate (SSC) (1X SSC=0.15 M NaCl, 0.015 M sodium citrate). After baking in vacuo for 30 minutes, the blots were hybridized for 15 to 18 hours to 1x10⁶ cpm/ml of […] the method of random priming (Feinberg and Vogelstein, 1983). Hybridization was carried out at 42°C using 50 percent N,N-dimethylformamide, 6X saline sodium phosphate ethylenediamine tetraacetic acid (SSPE), 1.0 percent sodium dodyl sulfate (SDS), and 50 µg/ml salmon sperm DNA (1X SSPE=0.18 M NaCl; […] NaH₂PO₄, pH 7.4; 1 mmol ethylene diamine tetraacetic acid (EDTA)). The hybridized blots were washed as follows: twice in 2X SSC/0.1 percent SDS at room temperature for 1 hour, once in 0.1X SSC/0.1 percent SDS at room temperature for 30 minutes, and once in 0.1x SSC/0.1 percent supplemented with SDS at 65°C for 15 minutes. The filters were exposed to x-ray film and quantitated by densitometry."}, "[2]": {"settings": "read-out: Percent Inhibition at Specified µg/ml conc."}}}
{"compound": "CNc1nc(N)nc2c1ncn2[C@@H]1O[C@H](CO)[C@@H](O)C1(F)F", "note": "[Example 5, 2-deoxy-2,2-difluoro-D-ribofuranosyl-1-β-(2-amino-6-methylaminopurine)]", "values": [{"measurement": "IC50", "setting": "[1]", "result": 0.054, "unit": "µg/mL"}, {"measurement": "inhibition at 0.1 µg/mL", "setting": "Hepatitis B Virus; [2]", "result": 56.9, "unit": "%"}, {"measurement": "inhibition at 1 µg/mL", "setting": "Hepatitis B Virus; [2]", "result": 81.9, "unit": "%"}, {"measurement": "inhibition at 10 µg/mL", "setting": "Hepatitis B Virus; [2]", "result": 84.6, "unit": "%"}, {"measurement": "inhibition at 100 µg/mL", "setting": "Hepatitis B Virus; [2]", "result": 83.9, "unit": "%"}, {"measurement": "IC50", "setting": "Hepatitis B Virus; read-out: concentration required to inhibit HBV DNA replication by 50 percent", "result": "< 0.1", "unit": "µg/mL"}]}
